According to US11413278B2, “Compounds and methods for promoting stress resistance” (priority 2015, dated 2022):
Where two headings read alike, the source gives them in different places.

Assays:
WI-38 cells [1] = assay: CdCl2 (cadmium) resistance assay; type: cell-based, human; conditions: for fold induction at 10 µM: Homo sapiens, 12 h, normalized ATP measurement; for Assay 4: H2O2- & Cd-resistant / Assay 2: Cadmium-resistant: YES/NO; for Assay 2: Cadmium-resistant: * indicates partial
In short: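 Resistance to CdCl2 or MMS stress (12 h exposure) was scored in WI-38 fibroblasts pretreated with compound at 0.25–20 μM final, five doses, technical triplicates. MMS plates had compound added 24 h before MMS, after a shift to serum-free DMEM+2% BSA. Significance came from a global variance t-test over two independent runs.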

FOXO3 = FOXO3 siRNA knockdown: dependency for H2O2-resistance; type: cell-based, human
Method: For qPCR analysis, WI-38 cells were treated with small molecules (at 10 μM) (biological quadruplicates) for 24 hrs and processed for RNA isolation and reverse transcription (RT) with the Cells-to-Ct Kit (Life Technologies), following manufacturer's instructions. RT products were diluted with H2O and used for qPCR analysis on an ABI 7300 system (Life Technologies) (technical triplicates). Relative expression levels of target genes were normalized to the genes B2M, PPIA and GAPDH. To knock down the expression of FOXO3 or NRF2, WI-38 cells were transfected, using the RNAiMAX reagents (Life Technologies), with siRNA oligos (at 10 nM final concentration, 10 ml culture medium) for FOXO3 (Life Technologies) or NRF2 (Integrated DNA Technologies) on 10-cm petri dishes for 36 hrs, and then detached and aliquoted onto 96-well (for qPCR analysis) or 384-well plates (for H2O2-stress treatment). ˜24 hrs later, small molecules were introduced and incubated with cells for 24 hrs. Cells were then either processed with the Cells-to-Ct Kit to prepare RT products for qPCR analysis or subjected to H2O2 (700 μM) for 3 hrs and assayed for viability. The knockdown efficiency of FOXO3 or NRF2 was checked at 36 hrs post-transfection and at the end as well. […]
Applicants used siRNA to knock down FOXO3 expression by ˜70% in an attempt to identify whether the activation of these genes depends on activity of FOXO3 and/or NRF2. […] We used siRNA to knock down FOXO3 expression by ˜60% to 70% (FIG. 3; see data in Table 6). […] (Given the caveat that FOXO3 was not fully knocked down, partial dependency was scored when the H2O2-resistance capacity was reduced by at least 25% but less than 50% upon siRNA knockdown). At least for Gr-7A and Gr-7C, which are structurally related, the observed FOXO3-dependency for H2O2-resistance is consistent with their strong effects to induce FOXO3 target genes (Tables 1a-1f, Table 6, & Table 15), including SOD2 and GADD45A.

C. elegans = C. elegans lifespan assays (liquid and plate); type: in vivo, Caenorhabditis elegans; conditions: for ILS at 60 µM / ILS at 66 µM: Caenorhabditis elegans; for O = Life span- extending scores in worms: score scale 0 to 2, 4 to 6 independent trials; for M = Lifespan-extending scores in worms: summary score
WI-38 cells [2] = conditions: no H2O2 stress, 10 uM; negative control 0.41% ± 0.23%
Method: WI-38 cells were seeded on 384-well plates for 24 hrs and then incubated with small molecules for 24 hrs. […] Images were collected on an INCell Analyzer 2000 (GE) and analyzed with the Developer software.

[3] = Exp. 1, WI-38 cells, read-out: Exp. 1, under Cd2Cl2 stress treatment, at 10 uM (fold change)
[4] = Exp. 2, WI-38 cells, read-out: Exp. 2, under Cd2Cl2 stress treatment, at 10 uM (fold change)
[5] = score in summary of 38 core set hits
[6] = 60 μM, in liquid, wild type, with FuDR, 1.0 × 10^9 bacteria/ml, read-out: relative change of mean lifespan vs control, Trial 1
[7] = 60 μM, in liquid, wild type, with FuDR, 2.5 × 10^9 bacteria/ml, read-out: relative change of mean lifespan vs control, Trial 2
[8] = 60 μM, on plate, CF512 temperature-sensitive sterile animals, without FuDR, 2.0 × 10^10 bacteria/ml, read-out: relative change of mean lifespan vs control, Trial 3
[9] = Assay 2(z), 1.0 × 10^9 bacteria/ml, wild type + FuDR (2012 July), read-out: Lifespan assay in liquid
[10] = Assay 3(aa), 2.5 × 10^9 bacteria/ml, wild type + FuDR, read-out: Lifespan assay in liquid
[11] = Assay 4(ab), 2.0 × 10^10 bacteria/ml, CF512 worms, no FuDR, read-out: Lifespan assay on plates
[12] = WI-38 cells, 10 μM, both stressors

Structure (SMILES) | fold induction at 10 µM (WI-38 cells [1]; [3]) | fold induction at 10 µM (WI-38 cells [1]; [4]) | Assay 4: H2O2- & Cd-resistant (WI-38 cells [1]) | Assay 2: Cadmium-resistant (WI-38 cells [1]) | A = Cadmium resistant (WI-38 cells [1]; [5]) | A = Cadmium resistant (WI-38 cells [1]; summary score) | C = H2O2- & Cd-resistant (WI-38 cells [1]; summary score) | I = FOXO3-dependency for H2O2-resistance (FOXO3; score) | I = FOXO3-dependency for H2O2-resistance (FOXO3; summary score) | ILS at 60 µM (C. elegans; [6]) | ILS at 60 µM (C. elegans; [7]) | ILS at 60 µM (C. elegans; [8]) | ILS at 66 µM (C. elegans; [9]) | ILS at 66 µM (C. elegans; [10]) | ILS at 66 µM (C. elegans; [11]) | O = Life span- extending scores in worms (C. elegans) | M = Lifespan-extending scores in worms (C. elegans) | Percentage of propidium iodide-positive dead cells (no H2O2 stress treatment), at 10 uM (WI-38 cells [2]) | CdCl2-resistant (WI-38 cells [1]) | H2O2- & CdCl2-resistant (WI-38 cells [1]) | also measured
COc1ccc(C(=O)/C=C/c2cccc(Cl)c2)c(OC)c1 [Gr-4C] | 1.07 | 1.19 | YES | YES | 0 | 1 | 1 | 0 | 0 | -14.9% | 3.1% | -1.7% | -14.9% | 3.1% | -1.7% | 0 | 0 | 0.47% ± 0.20%, | – | – | –
O=C(/C(=C/c1ccc(Cl)cc1)c1nc2ccccc2[nH]1)c1ccccc1 [Gr-4D] | 2.1 | 2.88 | YES | YES | 1 | 1 | 1 | 0 | 0 | 50.8% | 9% | 22.2% | 50.8% | 9% | 22.2% | 2 (2 for observed in more than 2 trials) | 2 (2 for observed in more than 2 trials) | 0.42% ± 0.15%, | YES | YES | CdCl2-resistant (WI-38 cells [1]; WI-38 cells, 10 μM): YES; H2O2- & CdCl2-resistant (WI-38 cells [1]; [12]): YES; FOXO3-dependency for H2O2-resistance, at 10 uM (experiment 3) - with & without H2O2 (FOXO3; 10 uM, experiment 3, with & without H2O2): Partial; FOXO3-dependency for H2O2-resistance (experiment 3) (FOXO3; 10 uM, with & without H2O2, FOXO3 knockdown in WI-38 cells, YES = resistance reduced by at least 50%, partial = 25% to 50%): Partial; Requirement of FOXO3 to promote H2O2-resistance (FOXO3; FOXO3 siRNA, at least 2 of 3 independent experiments): not FOXO3; relative change of mean lifespan vs control, Trial 6 (confirmative) (C. elegans; 60 μM, on plate, temperature-sensitive sterile animals, without FuDR, 1.0 × 10^11 bacteria/ml): +11.1%; relative change of mean lifespan vs control, Trial 5 (confirmative) (C. elegans; 60 μM, on plate, temperature-sensitive sterile animals, without FuDR, 2.0 × 10^10 bacteria/ml): +39.4%; Lifespan, average increase (C. elegans; 4 or more trials): 24.0%; ILS at 60 µM (C. elegans; 60 μM, on plate, CF512 temperature-sensitive sterile animals, without FuDR, 1.0 × 10^11 bacteria/ml, read-out: relative change of mean lifespan vs control, Trial 4): 11.3%; ILS at 66 µM (C. elegans; Assay 5(ac), 1.0 × 10^11 bacteria/ml, CF512 worms, no FuDR, read-out: Lifespan assay on plates): 11.3%; ILS at 66 µM (C. elegans; Assay 6(ad), 2.0 × 10^10 bacteria/ml, CF512 worms, no FuDR, read-out: Lifespan assay on plates): 39.4%; ILS at 66 µM (C. elegans; Assay 7(ae), 1.0 × 10^11 bacteria/ml, CF512 worms, no FuDR, read-out: Lifespan assay on plates): 11.1%; Lifespan extension of C. elegans (C. elegans; across independent trials): ≤ 50%; Extension of C. elegans' lifespan (qualitative) (C. elegans; in at least 3 to 4 trials, group range ~10% to ~50%): could extend animal's lifespan; Trials with lifespan extension (C. elegans; positive of total trials): 4 of 4; Lifespan, mean (FIG. 6B) (C. elegans; temperature-sensitive sterile rollers, on plate, without FuDR, 25° C. then ~22° C., control 18.4±0.4): 22.5±0.4; Lifespan increase (FIG. 6A) (C. elegans; wild-type, in liquid, with FuDR, 20° C., ~60 μM): ~51.2%; Lifespan, mean±SD (FIG. 6A) (C. elegans; wild-type, in liquid, with FuDR, 20° C., ~60 μM, control 21.1±0.5): 31.9±1.1
CCc1ccc(Oc2nc3ccccn3c(=O)c2/C=C(\C#N)C(=O)NC2CCCCC2)cc1 [Gr-5A] | 4.12 | 2.4 | – | – | 1 | 0 | 0 | 0 | 0 | 25.8% | -1.4% | -8.3% | 25.8% | -1.4% | -8.3% | 0 | 0 | 0.48% ± 0.20%, | YES | YES | CdCl2-resistant (WI-38 cells [1]; WI-38 cells, 10 μM): YES; H2O2- & CdCl2-resistant (WI-38 cells [1]; [12]): YES
